Laboratory results published in patent US20150328310A1, “METHODS AND COMPOSITIONS RELATING TO TREATMENT OF CANCER” (THE PENN STATE RESEARCH FOUNDATION, priority 2012, published 2015).

Assays:
SW480 = test: Cell viability assay of ISC-4 combined with approved antitumor agents, SW480; format: cell-based, human; parameters: key: uncooperative (−); cooperative (+); synergistic (*); ambiguous (?); conditions: ISC-4 (1, 2, or 4 μM) plus therapy at putative EC12.5, EC25, EC50; compared to monoagent activity
Procedure: (§1) Cell lines are obtained from ATCC and cultured in ATCC-recommended media in a humidified incubator at 5% CO2 and 37° C. For cell viability assays, cells are seeded into 96-well black-walled plates at a concentration of 1×10^5 cells per mL in fresh media and in a volume of 100 μL per well. Cells are allowed to adhere overnight and are treated the next day as indicated. At endpoint, CellTiter-Glo (Promega) assays are performed according to the manufacturer's protocol, and the bioluminescent readout is recorded on an IVIS imaging system (Xenogen).
(§2) The SW480 and RKO human colon cancer cell lines are used for initial profiling based on their heterogeneous oncogenic genetic alterations.
(§3) Combinatorial activities of ISC-4 and each listed drug are compared to monoagent activities of each drug alone by cell viability assays and determined to be uncooperative (−), cooperative (+), synergistic (*), or ambiguous (?).

RKO = test: Cell viability assay of ISC-4 combined with approved antitumor agents, RKO; format: cell-based, human; parameters: key: uncooperative (−); cooperative (+); synergistic (*); ambiguous (?); conditions: ISC-4 (1, 2, or 4 μM) plus therapy at putative EC12.5, EC25, EC50; compared to monoagent activity
Procedure: as §1, §2, §3

[1] = tested on: SW480 and RKO colon cancer cell lines; conditions: estimated from the literature, dose used with ISC-4 in FIG. 2, cited from earlier work; for EC50: read-out: EC50

Row | SMILES | Combinatorial effect of ISC-4 with the listed therapy, SW480 (SW480) | Combinatorial effect of ISC-4 with the listed therapy, RKO (RKO) | EC12.5 [1] [µM] | EC25 [1] [µM] | EC50 [1] [µM]
1 | CS(=O)(=O)CCNCc1ccc(-c2ccc3ncnc(Nc4ccc(OCc5cccc(F)c5)c(Cl)c4)c3c2)o1 [Lapatinib] | − | − | 1.75 | 3.5 | 7
2 | CC(=O)O[C@@]12CO[C@@H]1C[C@H](O)[C@@]1(C)C(=O)[C@H](O)C3=C(C)[C@@H](OC(=O)[C@H](O)[C@@H](NC(=O)OC(C)(C)C)c4ccccc4)C[C@@](O)([C@@H](OC(=O)c4ccccc4)[C@H]21)C3(C)C [Docetaxel] | − | − | 2.5 | 5 | 10
3 | CNC(=O)c1cc(Oc2ccc(NC(=O)Nc3ccc(Cl)c(C(F)(F)F)c3)cc2)ccn1 [Sorafenib] | + | + | 8 | 16 | 32
4 | N.N.[Cl][Pt][Cl] [Cisplatin] | + | − | 1.125 | 2.25 | 4.5
5 | O=C1[O][Pt]2([NH][C@@H]3CCCC[C@H]3[NH]2)[O]C1=O [Oxaliplatin] | − | − | 0.075 | 0.15 | 0.3
6 | CC(C)C[C@H](NC(=O)[C@H](Cc1ccccc1)NC(=O)c1cnccn1)B(O)O [Bortezomib] | ? | + |  |  | 
7 | O=c1[nH]cc(F)c(=O)[nH]1 [5-FU, 5-fluorouracil] | − | − | 4.5 | 9 | 18
8 | COc1cc2ncnc(Nc3ccc(F)c(Cl)c3)c2cc1OCCCN1CCOCC1 [Gefitinib] | + | + | 5.75 | 11.5 | 
9 | COc1cccc2c1C(=O)c1c(O)c3c(c(O)c1C2=O)C[C@@](O)(C(=O)CO)C[C@@H]3O[C@H]1C[C@H](N)[C@H](O)[C@H](C)O1 [Doxorubicin] | − | ? | 16.25 | 32.5 | 65
